We go through 17 compounds from patent publication US11999727B2 (Tango Therapeutics, Inc., priority 2020, dated 2024).

A value given as a limit tells only on which side of the number the result lay.

Experiment [1] relates to HAP1 MTAP-deleted cell line. The experiment can be described thus: Viability assay, MTAP-deleted cell line. The format is cell-based. As to conditions: Homo sapiens, HAP1, viability assay, HAP1 MTAP-deleted; read-out: HAP1 MTAP deleted viability. The text has this: Table 1 additionally indicates IC50 values in a viability assay for the MTAP-deleted cell line (column 10), indicating the effect of treatment with compound on cell survival.

In experiment [2] the target is T1, PRMT5 (Homo sapiens, UniProt O14744).
T1 construct: purchased Viva (custom protein)
Briefly: PRMT5 biochemical IC50 assay with SAM as cofactor. As to conditions: PRMT5, SAM as cofactor; read-out: SAM IC50.

Experiment [3] has as its target T1, PRMT5. The experiment can be described thus: PRMT5 biochemical IC50 assay with no cofactor. As to conditions: PRMT5, no cofactor; read-out: No Cofactor/rel IC50. The text has this: Table 1 indicates IC50 values (μM) against PRMT5 for exemplary compounds in the presence of SAM as cofactor, with no cofactor, and with MTA as cofactor, respectively (columns 4-6). […] Ki values can be calculated from the IC50 values as described in the Examples section. As detailed in the Examples section, for the assay performed in the presence of SAM, IC50=Ki×1.5 (Ki=IC50/1.5).

Experiment [4] has as its system HAP1 MTAP-intact cell line. The experiment can be described thus: SDMA in-cell western assay, HAP1 MTAP-intact. The experiment is classed as cell-based. As to conditions: Homo sapiens, HAP1, SDMA in-cell western, HAP1 MTAP-intact; read-out: MTAP HAP1 intact IC50. The method, boiled down: (§1)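 Isogenic HAP1 pair: the MTAP-intact line expresses endogenous MTAP, and the deleted line is MTAP-null. Symmetric dimethylarginine was detected by in-cell western and IC50 values derived for each line.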

The target of experiment [5] is T1, PRMT5. Briefly: PRMT5 biochemical IC50 assay with MTA as cofactor. As to conditions: PRMT5, MTA as cofactor; read-out: MTA IC50.
Experiment [6] has as its system HAP1 MTAP-deleted cell line. Briefly: SDMA in-cell western assay, HAP1 MTAP-deleted. The experiment is classed as cell-based. As to conditions: for IC50: Homo sapiens, HAP1, SDMA in-cell western, HAP1 MTAP-deleted, read-out: HAP1 MTAP deleted IC50; for MTAP intact/deleted ratio: IC50 ratio HAP1 MTAP-intact / HAP1 MTAP-deleted, SDMA in-cell western. The method, boiled down: as §1

T1 sequence (O14744 whole entry): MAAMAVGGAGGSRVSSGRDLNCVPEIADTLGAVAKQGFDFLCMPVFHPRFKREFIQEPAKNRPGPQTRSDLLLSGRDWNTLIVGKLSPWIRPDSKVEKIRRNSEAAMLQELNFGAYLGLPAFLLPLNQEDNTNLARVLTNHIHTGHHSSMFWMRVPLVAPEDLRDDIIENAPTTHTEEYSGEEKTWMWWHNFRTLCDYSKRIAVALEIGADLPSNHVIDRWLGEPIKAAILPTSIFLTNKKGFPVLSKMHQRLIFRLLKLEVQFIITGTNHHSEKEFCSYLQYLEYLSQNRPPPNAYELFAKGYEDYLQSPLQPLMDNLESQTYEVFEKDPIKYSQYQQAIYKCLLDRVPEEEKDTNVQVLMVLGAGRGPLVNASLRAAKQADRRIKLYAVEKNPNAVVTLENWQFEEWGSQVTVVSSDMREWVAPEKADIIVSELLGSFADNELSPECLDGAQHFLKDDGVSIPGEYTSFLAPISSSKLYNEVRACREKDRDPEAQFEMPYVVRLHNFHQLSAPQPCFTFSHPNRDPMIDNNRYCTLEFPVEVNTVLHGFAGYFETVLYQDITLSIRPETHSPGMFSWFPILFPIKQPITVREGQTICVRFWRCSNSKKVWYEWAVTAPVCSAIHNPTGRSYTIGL
T1 sequence (Q9BQA1 whole entry partner): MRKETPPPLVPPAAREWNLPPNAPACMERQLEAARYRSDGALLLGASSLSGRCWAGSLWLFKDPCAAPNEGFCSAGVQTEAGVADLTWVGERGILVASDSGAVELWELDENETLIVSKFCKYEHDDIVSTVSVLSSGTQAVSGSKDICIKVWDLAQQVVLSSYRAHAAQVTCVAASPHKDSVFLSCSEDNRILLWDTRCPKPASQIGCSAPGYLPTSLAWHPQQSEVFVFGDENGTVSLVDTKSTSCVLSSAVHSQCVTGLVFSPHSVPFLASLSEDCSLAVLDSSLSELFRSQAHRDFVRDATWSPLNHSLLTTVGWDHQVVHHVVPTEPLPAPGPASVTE

With `CNC(=O)c1ccc([C@H]2CC[C@H](C)CN2C(=O)C(=O)Nc2cnc(N)c(C)c2)s1` (single isomer, unassigned) [Compound 859], the IC50 is < 1000 nM in experiment [1]; 50 to 500 nM on PRMT5 [2]; < 50 nM at PRMT5 [3]; 100 to 1000 nM in experiment [4]; < 50 nM on PRMT5 [5]; < 100 nM in experiment [6]. In addition, the MTAP intact/deleted ratio entry in experiment [6] was “A (an IC50 ratio greater than or equal to 10 fold)”.

In the case of `Cc1cc(NC(=O)C(=O)N2C[C@@H](C)CC[C@@H]2c2ccc(N)nc2)cnc1N` (single isomer, unassigned) [Compound 860], the IC50 in experiment [1] was > 10000 nM; on PRMT5 [2], > 500 nM; on PRMT5 [3], > 500 nM; in experiment [4] it was > 1000 nM; at PRMT5 [5], > 500 nM; in experiment [6] it was > 1000 nM. In addition, in experiment [6], the MTAP intact/deleted ratio result was “B (an IC50 ratio greater than or equal to 3 fold but lower than 10 fold)”.

`CNc1nc2cc([C@H]3CC[C@H](C)CN3C(=O)C(=O)Nc3cncc(C(N)=O)c3)ccc2s1` (single isomer, unassigned) [Compound 862]: the IC50 is > 10000 nM in experiment [1]; > 500 nM at PRMT5 [2]; > 500 nM at PRMT5 [3]; > 1000 nM in experiment [4]; > 500 nM on PRMT5 [5]; > 1000 nM in experiment [6]. In addition, the MTAP intact/deleted ratio entry in experiment [6] was “B (an IC50 ratio greater than or equal to 3 fold but lower than 10 fold)”.

On to `CNc1nc2cc([C@H]3CC[C@H](C)CN3C(=O)C(=O)Nc3cnc(OC)c(C(N)=O)c3)ccc2s1` (single isomer, unassigned) [Compound 863], for which the IC50 in experiment [1] is < 1000 nM; at PRMT5 [2] it was 50 to 500 nM; on PRMT5 [3] it was < 50 nM; in experiment [4] it was > 1000 nM; on PRMT5 [5], < 50 nM; in experiment [6], < 100 nM. The MTAP intact/deleted ratio result in experiment [6] is “A (an IC50 ratio greater than or equal to 10 fold)”.

On to `CNc1ccc([C@@H]2CC[C@@H](C)CN2C(=O)C(=O)Nc2cnc(N)c(C)c2)cn1` (single isomer, unassigned) [Compound 864], for which the IC50 in experiment [1] is < 1000 nM; at PRMT5 [2], 50 to 500 nM; on PRMT5 [3] it was < 50 nM; in experiment [4], 100 to 1000 nM; on PRMT5 [5] it was < 50 nM; in experiment [6] it was < 100 nM. Further, in experiment [6], the MTAP intact/deleted ratio entry was “B (an IC50 ratio greater than or equal to 3 fold but lower than 10 fold)”.

As to `CCc1cc(NC(=O)C(=O)N2C[C@H](C)CC[C@H]2c2ccc(NC)nc2)cnc1N` (single isomer, unassigned) [Compound 865], the IC50 is < 1000 nM in experiment [1]; 50 to 500 nM on PRMT5 [2]; < 50 nM on PRMT5 [3]; 100 to 1000 nM in experiment [4]; < 50 nM on PRMT5 [5]; < 100 nM in experiment [6]. Besides, in experiment [6], the MTAP intact/deleted ratio result is on record as “A (an IC50 ratio greater than or equal to 10 fold)”.

Regarding `CCc1cc(NC(=O)C(=O)N2C[C@H](C)CC[C@H]2c2ccc(NS(C)(=O)=O)cc2)cnc1N` (single isomer, unassigned) [Compound 866], the IC50 in experiment [1] is > 10000 nM; on PRMT5 [2] it was > 500 nM; on PRMT5 [3], > 500 nM; in experiment [4], > 1000 nM; at PRMT5 [5] it was > 500 nM; in experiment [6], > 1000 nM. Besides, the MTAP intact/deleted ratio entry in experiment [6] is “C (an IC50 ratio of less than 3 fold)”.

In the case of `C[C@@H]1CC[C@@H](c2cc3[nH]ncc3s2)N(C(=O)C(=O)Nc2cncc(C(N)=O)c2)C1` (single isomer, unassigned) [Compound 868, 5-(2-(5-methyl-2-(1H-thieno[3,2-c]pyrazol-5-yl)piperidin-1-yl)-2-oxoacetamido)nicotinamide], the IC50 was > 10000 nM in experiment [1]; > 500 nM on PRMT5 [2]; > 500 nM on PRMT5 [3]; > 1000 nM in experiment [4]; > 500 nM on PRMT5 [5]; > 1000 nM in experiment [6]. Also, the MTAP intact/deleted ratio entry in experiment [6] is reported as “C (an IC50 ratio of less than 3 fold)”.

For `C[C@H]1CC[C@H](c2cc3[nH]ncc3s2)N(C(=O)C(=O)Nc2cncc(C(N)=O)c2)C1` (single isomer, unassigned) [Compound 873, 5-(2-(5-methyl-2-(1H-thieno[3,2-c]pyrazol-5-yl)piperidin-1-yl)-2-oxoacetamido)nicotinamide], the IC50 in experiment [1] was < 1000 nM; at PRMT5 [2] it was 50 to 500 nM; on PRMT5 [3], 50 to 500 nM; in experiment [4] it was > 1000 nM; at PRMT5 [5], < 50 nM; in experiment [6], < 100 nM. Also, the MTAP intact/deleted ratio entry in experiment [6] is reported as “A (an IC50 ratio greater than or equal to 10 fold)”.

On to `Cc1ncc(NC(=O)C(=O)N2C[C@H](C)CC[C@H]2c2ccc3c(c2)CCC(=O)N3)cc1C(F)F` (single isomer, unassigned) [Compound 874], for which the IC50 in experiment [1] was < 1000 nM; on PRMT5 [2] it was 50 to 500 nM; at PRMT5 [3], 50 to 500 nM; in experiment [4], 100 to 1000 nM; on PRMT5 [5], < 50 nM; in experiment [6], < 100 nM. The MTAP intact/deleted ratio entry in experiment [6] was “A (an IC50 ratio greater than or equal to 10 fold)”.

As to `CNc1nc2cc([C@@H]3CC[C@@H](C)CN3C(=O)C(=O)Nc3cnc(OC)c(C(N)=O)c3)ccc2s1` (single isomer, unassigned) [Compound 875], the IC50 is > 10000 nM in experiment [1]; > 500 nM at PRMT5 [2]; > 500 nM at PRMT5 [3]; > 1000 nM in experiment [4]; > 500 nM on PRMT5 [5]; > 1000 nM in experiment [6]. Besides, the MTAP intact/deleted ratio entry in experiment [6] was “B (an IC50 ratio greater than or equal to 3 fold but lower than 10 fold)”.

For the compound `CNc1ccc([C@H]2CC[C@H](C)CN2C(=O)C(=O)Nc2cnc(N)c(C)c2)cn1` (single isomer, unassigned) [Compound 876], the IC50 in experiment [1] is > 10000 nM; at PRMT5 [2] it was > 500 nM; on PRMT5 [3], > 500 nM; in experiment [4] it was > 1000 nM; on PRMT5 [5], > 500 nM; in experiment [6], > 1000 nM. The MTAP intact/deleted ratio entry in experiment [6] is on record as “B (an IC50 ratio greater than or equal to 3 fold but lower than 10 fold)”.

On to `CNc1nc2cc([C@@H]3CC[C@@H](C)CN3C(=O)C(=O)Nc3cncc(C(N)=O)c3)ccc2s1` (single isomer, unassigned) [Compound 877], for which the IC50 in experiment [1] is < 1000 nM; at PRMT5 [2] it was 50 to 500 nM; on PRMT5 [3], 50 to 500 nM; in experiment [4] it was > 1000 nM; on PRMT5 [5], < 50 nM; in experiment [6] it was < 100 nM. Also, the MTAP intact/deleted ratio entry in experiment [6] is given as “A (an IC50 ratio greater than or equal to 10 fold)”.

With `CCc1cc(NC(=O)C(=O)N2C[C@@H](C)CC[C@@H]2c2ccc(NC)nc2)cnc1N` (single isomer, unassigned) [Compound 878], the IC50 was > 10000 nM in experiment [1]; > 500 nM at PRMT5 [2]; > 500 nM at PRMT5 [3]; > 1000 nM in experiment [4]; > 500 nM on PRMT5 [5]; > 1000 nM in experiment [6]. The MTAP intact/deleted ratio result in experiment [6] is listed as “C (an IC50 ratio of less than 3 fold)”.

For `COc1ncc(NC(=O)C(=O)N2C[C@@H](C)CC[C@@H]2c2ccn(-c3cc[nH]n3)n2)cc1C(N)=O` (single isomer, unassigned) [Compound 881], the IC50 was > 10000 nM in experiment [1]; > 500 nM on PRMT5 [2]; > 500 nM on PRMT5 [3]; > 1000 nM in experiment [4]; > 500 nM on PRMT5 [5]; > 1000 nM in experiment [6]. The MTAP intact/deleted ratio result in experiment [6] is on record as “B (an IC50 ratio greater than or equal to 3 fold but lower than 10 fold)”.

In the case of `C[C@H]1CC[C@H](c2ccn(-c3cc[nH]n3)n2)N(C(=O)C(=O)Nc2cncc(C(N)=O)c2)C1` (single isomer, unassigned) [Compound 882], the IC50 in experiment [1] is > 10000 nM; on PRMT5 [2], > 500 nM; on PRMT5 [3] it was > 500 nM; in experiment [4], > 1000 nM; on PRMT5 [5], > 500 nM; in experiment [6] it was > 1000 nM. In addition, the MTAP intact/deleted ratio result in experiment [6] is listed as “C (an IC50 ratio of less than 3 fold)”.

With `C[C@@H]1CC[C@@H](c2cccc3[nH]ncc23)N(C(=O)C(=O)Nc2cncc(C(N)=O)c2)C1` (single isomer, unassigned) [Compound 883], the IC50 in experiment [1] was > 10000 nM; on PRMT5 [2] it was > 500 nM; at PRMT5 [3], > 500 nM; in experiment [4], > 1000 nM; on PRMT5 [5], > 500 nM; in experiment [6], > 1000 nM. For the same compound, in experiment [6], the MTAP intact/deleted ratio result was “C (an IC50 ratio of less than 3 fold)”.
